Assay results as given in patent EP2020447A1, “Method for identifying compounds modulating adiponectin gene expression” (priority 2007, dated 2009).

Experiments:
[1] = system: human adiponectin gene promoter; experiment: Luciferase reporter screening assay in C2C12 cells stably expressing the adiponectin promoter construct; format: cell-based; settings: for concentration at which the greatest transactivation of the target promoter was obtained (maximum activity): stable C2C12 adiponectin promoter-luciferase line, commercial activator (positive control), luciferase read 48 hours after stimulation
Procedure: To determine the luciferase activity, between 50000 and […] cells were seeded in each well and in a P24 plate in duplicate. After approximately 24 hours, the medium was removed from the cells and each well was washed with PBS 1x (because DMEM interferes in the measurement of the reporter gene activity). 100 µl of luciferase developing agent (Bright-GloTM Luciferase Assay system- Promega) were then added to each well. This reagent carries the reporter gene substrate and luminescence is generated as a product of the enzymatic reaction. […] To record the measurement of luciferase activity, the plate was shaken for 30 seconds right after adding the developing reagent and after 2 minutes, the volume was collected and transferred to a 96-well plate (P96), which was read in an illuminometer using the program with a duration of 5 seconds and the arbitrary luminescence units were recorded for each obtained clone or, in other words, for each stable cell line.
For the screening, 30000 cells per well were seeded in white P96 plates because these plates allow amplifying the luminescence signal and improving the reading. The cells were grown in 100 µl of hygromycin-free medium.
The cells were stimulated with the extracts 24 hours after the seeding in the following conditions: • cells to which only complete medium had been added (baseline transcription), • cells to which medium had been added in which the extracts to be assayed are dissolved (vehicle), • cells to which a known commercial activator of the target promoter had been added, thus having a positive control of the transcriptional activation and of the screening protocol and which are useful as a reference when screening those positive extracts increasing the activity of the promoters to be studied, because they provide an activation ratio which is calculated as follows: by dividing the average luminescence signal increase in the presence of the commercial activator by the average luminescence signal provided by the baseline activity of the target promoter in the presence of the vehicle. […]
The luciferase activity directed by the target promoters was developed 48 hours after the stimulation with the extracts, according to the protocol described in example 4, but modified such that once the medium was removed from the cells and they were washed with PBS 1x, 40 µl of luciferase developing reagent were added to each well and the plate was read after 2 minutes.
Luminescence values measured in RLUs (Relative Luciferase Units) obtained in the presence of each of the marine extracts which have been assayed were then plotted against the average luminescence signal obtained in baseline conditions (in the presence of the vehicle). […]

C2C12 cells = experiment: Toxicity of the commercial activators for the cells in the screening assay; format: cell-based, Mus musculus

| SMILES | potency in the screening assays (comparison in words) ([1]; comparison of commercial activators of the adiponectin promoter) | concentration at which the greatest transactivation of the target promoter was obtained (maximum activity) [1] [µM] | toxicity for the cells (comparison in words) (C2C12 cells) |
| --- | --- | --- | --- |
| O=c1c(-c2ccc(O)cc2)coc2cc(O)ccc12 [daidzein] | more potent than RGZ | 20 | less toxic for the cells than Genistein |
| O=c1c(-c2ccc(O)cc2)coc2cc(O)cc(O)c12 [genistein] |  | 20 |  |
| CN(CCOc1ccc(CC2SC(=O)NC2=O)cc1)c1ccccn1 (centres unmarked) [rosiglitazone] |  | 20 |  |
